Results published in patent US11331368B2, “Angiotensin receptor agonists and uses thereof” (Monash University, priority 2017, dated 2022).

Legend:
[1] = tested on: male FVB/N mice on high salt diet, liver; experiment: High salt (5%) diet intervention model, liver; type: in vivo, mouse; details: weeks 5-8; peptides 75 pmol/kg/min s.c.; Cand 2 mg/kg/day, captopril 3 mg/kg/day
[2] = tested on: stroke-prone spontaneously hypertensive rats (SHRSP); experiment: Stroke-prone spontaneously hypertensive rats (SHRSP), 4-week infusion; type: in vivo, rat; details: 75 pmol/kg/min s.c. for 4 weeks
Description: FIG. 27: AT2R stimulation by β-Pro^7-Ang III attenuates cardiac fibrosis in stroke-prone spontaneously hypertensive rats (SHRSP). Mean data for cardiac fibrosis determined by picrosirius red staining of transverse heart sections, under bright field microscopy, taken from ˜25-week old, male stroke-prone spontaneously hypertensive rats (SHRSP) that received either saline or β-Pro^7-Ang III (75 pmol/kg/min subcutaneously via osmotic mini-pump) for 4 weeks (n=3-4). Data expressed as mean±s.e.m of percentage positive stained area for fibrosis. **P<0.01 versus saline (unpaired t-test).
For the first time, β-Pro^7-Ang III was tested at the same dose, duration and route of administration (75 pmol/kg/min subcutaneously via osmotic mini-pump for 4 weeks) in adult male stroke-prone spontaneously hypertensive rats (SHRSP).

[3] = biological target: T1, human AT1R (Homo sapiens, UniProt P30556); experiment: Competition radioligand binding (125I-Sar1-Ile8-AngII) in AT1R-transfected HEK-293 cells
T1 construct: expressed in transfected cells
T1 sequence (P30556 1-359): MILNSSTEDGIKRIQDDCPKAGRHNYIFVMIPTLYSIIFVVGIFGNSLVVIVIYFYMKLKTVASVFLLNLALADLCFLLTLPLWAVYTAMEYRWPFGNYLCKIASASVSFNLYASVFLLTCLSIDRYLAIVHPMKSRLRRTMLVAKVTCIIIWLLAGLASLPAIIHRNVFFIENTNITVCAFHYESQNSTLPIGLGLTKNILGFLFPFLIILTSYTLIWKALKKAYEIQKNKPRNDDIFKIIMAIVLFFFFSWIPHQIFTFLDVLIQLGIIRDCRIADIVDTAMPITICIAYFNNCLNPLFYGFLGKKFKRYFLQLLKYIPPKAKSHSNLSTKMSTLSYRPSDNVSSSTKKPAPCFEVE
Description: This will lead to the generation of IC50 values that determine the relative ability of test compounds to interact with both Angiotensin receptors.
Cells were grown to approximately 80% confluence before being re-plated into 48 well plates at 1×10^5 cells/well and grown for 48 hours at 37° C. for a whole cell competition binding assay. [125I]-Sar1Ile8Ang II at 50,000 cpm, incubated for 45 minutes at 37° C., in the absence or presence of unlabeled ligands, prepared in binding buffer (DMEM, 0.1% BSA), were used in the competition assays at concentrations ranging from 1 μM to 10 μM. For each experiment, each ligand concentration was tested in duplicate or triplicate, and each experiment was repeated at least 3 separate times. […] The ability of each ligand to inhibit specific binding of [125I]-Sar1Ile8Ang II was measured on a gamma counter with all counts corrected for NSB.

[4] = tested on: mouse aortae; experiment: Vasorelaxation of pre-contracted mouse aortae; details: 0.1-1000 nM, pre-contracted with U46619
Source text: FIG. 17: The selective AT2R ligands, β-Pro^7-Ang III and D-Arg^2-β-Pro^7-Ang III, are functional agonists in vasculature.

For “Arg-Val-Tyr-Ile-His-β-Pro-Phe [βPro-Ang III]”, the “liver fibrosis (picrosirius red, polarized light)” value [1] was “appears to attenuate”, the “liver steatosis (Oil Red O)” value [1] was “partially reversed” and the “SBP in SHRSP” value [2] was “did not affect SBP”. For the same substance, the “cardiac fibrosis (picrosirius red) in SHRSP” value [2] was “significantly reduced cardiac fibrosis”, the “binding at AT1R (displacement of 125I-Sar1-Ile8-AngII), in words” value [3] was “bind poorly” and the “vasorelaxation of pre-contracted aortae” value [4] was “concentration-dependent vasorelaxation”.
